The source of these data is patent US20240336660A1 (priority 2021, published 2024).

One assay concerns Htet1/SD614G cells. It counts as cell-based, human. To be noted: for effect on trafficking of Spike to lysosomes: 20 hours, 50 μM dynasore, 20 μM pitstop2, 1 μM nocodazole, 43 nM bafilomycin.
Assay [1] deals with doxycycline-induced Htet1/SW1 cells. Type of assay: cell-based, human.

*: point of attachment. Decanoyl = CCCCCCCCCC(=O)*; CH2Cl = ClC*

In the case of `O=C1NC(=NS(=O)(=O)c2cccc3ccccc23)S/C1=C\c1ccc(Br)cc1` [pitstop2], the “effect on trafficking of Spike to lysosomes” value in the assay on Htet1/SD614G cells is given as “Neither had a noticeable impact on the trafficking of Spike to lysosomes”. In the case of Decanoyl-RVKR-CH2Cl, the “effect on Spike cell surface expression and furin-mediated processing” value in assay [1] is “reduced Spike's cell surface expression and furin-mediated processing”. On to `COC(=O)Nc1nc2ccc(C(=O)c3cccs3)cc2[nH]1` [nocodazole], for which, in the assay with Htet1/SD614G cells, the “effect on trafficking of Spike to lysosomes” value is reported as “had no effect”. Same read-out and setting: then `O=C(N/N=C/c1ccc(O)c(O)c1)c1cc2ccccc2cc1O` [dynasore], with “Neither had a noticeable impact on the trafficking of Spike to lysosomes”; and bafilomycin, with “redirected Spike into the Golgi and plasma membranes, preventing its accumulation in lysosomes”. For vacuolin-1, in the assay on Htet1/SD614G cells (vacuolin-1 10 μg/ml for three hours), the “Spike localization after vacuolin-1 treatment” value is listed as “Spike localization to lysosome membranes was also apparent”.
